Source: patent US10975084B2, “KDM5 inhibitors” (Merck Sharp & Dohme Corp., priority 2016, dated 2021)

These molecules were tested against KDM5B (Homo sapiens (Human), UniProt Q9UGL1) (assay: KDM5B TR-FRET Enzyme Activity Assay). Conditions: LANCE TR-FRET; 5 nM full-length recombinant KDM5B; ten point titration 100000 nM to 5.08 nM.
Type: biochemical
Description: KDM5B TR-FRET Enzyme Activity Assay
KDM5B enzymatic activity was determined with the LANCE (Lanthanide Chelate Excite) TR-FRET (Time-resolved fluorescence resonance energy transfer) assay. […] To each well of a white Greiner 1536 Lumitrac 1536 well-plate, 50 nL of compound (100 fold dilution in final assay volume of 5 μL) was dispensed, followed by the addition of 4 μL of 1× assay buffer (50 mM Hepes 7.3, 0.5 mM TCEP, 0.005% Brij-35, 0.02% BSA, 50 μM Na-L-Ascorbate and 2 μM AmFe(II)Sulfate) containing 5 nM of Full-length KDM5B enzyme (recombinant protein from baculovirus-transfected Sf21 cells: full-length KDM5B; MW=176.825 kDa). Following a 30 minutes compound and enzyme incubation in a humidified chamber, each reaction was initiated by the addition of 1 μL 1× assay buffer containing […] biotinylated H3K4Me3 peptide, and 500 nM α-ketoglutarate. The final reaction in each well of 5 μL consists of 5 nM KDM5B, 500 nM biotinylated-peptide, and 500 nM α-ketoglutarate. De-methylation reactions were allowed to proceed for 60 minutes. Reactions were immediately quenched by the addition of 5 uL of 2× Lance Detection Buffer (PerkinElmer) with 0.5 mM EDTA and 2 nM of Eu-anti-H3K4Me1-2 antibody, and 30 nM of Streptavidin-conjugated Dylight 650 detection reagents. After 60 minutes incubation with detection reagents, reaction plates were read on a PerkinElmer EnVision plate reader using standard TR-FRET protocol. Briefly, excitation of donor molecules (Eu-chelate-anti-H3K4Me1-2-antibody) with a laser light source at 337 nm produces energy that can be transferred to Dylight-650 acceptor molecules if this donor:acceptor pair is within close proximity. Fluorescence intensity at both 665 nm (acceptor) and 615 nm (donor) are measured and a TR-FRET ratio calculated for each well (acceptor intensity/donor intensity). IC50 values were determined by 4 parameter robust fit of TR-FRET ratio values vs. (Log 10) compound concentrations.

Sequence of KDM5B (Q9UGL1 whole entry): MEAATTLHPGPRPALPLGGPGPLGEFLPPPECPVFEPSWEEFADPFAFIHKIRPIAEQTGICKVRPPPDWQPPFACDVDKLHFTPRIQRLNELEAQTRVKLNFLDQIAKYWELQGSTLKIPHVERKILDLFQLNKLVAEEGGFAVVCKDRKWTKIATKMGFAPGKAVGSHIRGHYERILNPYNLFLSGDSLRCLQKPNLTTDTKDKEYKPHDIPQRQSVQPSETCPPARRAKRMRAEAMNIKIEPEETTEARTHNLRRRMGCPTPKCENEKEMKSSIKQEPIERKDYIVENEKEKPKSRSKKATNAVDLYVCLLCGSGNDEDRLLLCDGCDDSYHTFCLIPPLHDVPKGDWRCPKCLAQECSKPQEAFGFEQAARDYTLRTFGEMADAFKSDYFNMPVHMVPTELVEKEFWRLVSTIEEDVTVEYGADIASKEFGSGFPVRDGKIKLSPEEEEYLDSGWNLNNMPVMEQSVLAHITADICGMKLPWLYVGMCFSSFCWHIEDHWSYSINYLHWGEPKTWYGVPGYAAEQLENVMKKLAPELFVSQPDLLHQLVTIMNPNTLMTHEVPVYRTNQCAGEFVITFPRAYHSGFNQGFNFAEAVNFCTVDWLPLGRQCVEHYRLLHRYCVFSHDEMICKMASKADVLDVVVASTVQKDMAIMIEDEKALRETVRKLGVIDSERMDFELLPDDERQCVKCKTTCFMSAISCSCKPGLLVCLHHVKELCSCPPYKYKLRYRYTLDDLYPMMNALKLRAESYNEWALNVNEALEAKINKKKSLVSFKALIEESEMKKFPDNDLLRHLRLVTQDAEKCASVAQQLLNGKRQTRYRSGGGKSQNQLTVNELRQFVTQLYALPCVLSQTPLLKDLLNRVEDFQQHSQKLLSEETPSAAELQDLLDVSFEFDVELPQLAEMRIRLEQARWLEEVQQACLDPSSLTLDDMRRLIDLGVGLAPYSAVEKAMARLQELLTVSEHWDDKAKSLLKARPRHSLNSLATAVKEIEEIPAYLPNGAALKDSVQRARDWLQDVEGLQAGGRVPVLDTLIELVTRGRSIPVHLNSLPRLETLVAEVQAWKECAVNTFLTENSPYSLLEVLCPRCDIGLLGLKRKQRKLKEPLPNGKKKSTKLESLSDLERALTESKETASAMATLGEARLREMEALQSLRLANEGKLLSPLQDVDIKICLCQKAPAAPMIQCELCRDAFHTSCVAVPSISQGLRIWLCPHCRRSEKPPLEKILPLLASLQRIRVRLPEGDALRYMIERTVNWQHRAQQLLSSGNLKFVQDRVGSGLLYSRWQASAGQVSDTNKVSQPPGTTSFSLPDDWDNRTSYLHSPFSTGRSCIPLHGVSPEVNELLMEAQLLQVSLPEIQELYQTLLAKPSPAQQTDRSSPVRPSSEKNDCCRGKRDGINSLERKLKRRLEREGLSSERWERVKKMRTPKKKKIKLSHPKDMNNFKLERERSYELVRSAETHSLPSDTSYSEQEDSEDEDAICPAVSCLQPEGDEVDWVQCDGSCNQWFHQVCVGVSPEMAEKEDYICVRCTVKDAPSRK

Row | Compound | IC50 [nM]
1 | CC(C)c1c(-c2cnn(-c3ccccc3)c2)[nH]c2ncnn2c1=O [Example 11-8, 6-(1-methylethyl)-5-(1-phenyl-1H-pyrazol-4-yl)[1,2,4]triazolo[1,5-a]pyrimidin-7(4H)-one] | 6.28
2 | CC(C)c1c(-c2cnn(Cc3ccccc3)c2)[nH]c2ncnn2c1=O [Example 11-9, 5-(1-benzyl-1H-pyrazol-4-yl)-6-(1-methylethyl)[1,2,4]triazolo[1,5-a]pyrimidin-7(4H)-one] | 7.3
3 | CC(C)c1c(-c2ccc(N3CCOCC3)cc2)[nH]c2ncnn2c1=O [Example 11-10, 6-(1-methylethyl)-5-(4-morpholin-4-ylphenyl)[1,2,4]triazolo[1,5-a]pyrimidin-7(4H)-one] | 7.52
4 | CC(C)c1c(-c2ccc(F)cc2)[nH]c2ncnn2c1=O [Example 11-11, 5-(4-fluorophenyl)-6-(1-methylethyl)[1,2,4]triazolo[1,5-a]pyrimidin-7(4H)-one] | 160
5 | CC(C)Cn1cc(-c2[nH]c3ncnn3c(=O)c2C(C)C)cn1 [Example 11-12, 6-(1-methylethyl)-5-[1-(2-methylpropyl)-1H-pyrazol-4-yl][1,2,4]triazolo[1,5-a]pyrimidin-7(4H)-one] | 5.08
6 | CC(C)c1c(-c2cnn(CC3(F)CCCC3)c2)[nH]c2ncnn2c1=O [Example 11-13, 5-{1-[(1-fluorocyclopentyl)methyl]-1H-pyrazol-4-yl}-6-(1-methylethyl)[1,2,4]triazolo[1,5-a]pyrimidin-7(4H)-one] | 5.08
7 | CC(C)c1c(-c2cnn(CC3CC3)c2)[nH]c2ncnn2c1=O [Example 11-14, 5-[1-(cyclopropylmethyl)-1H-pyrazol-4-yl]-6-(1-methylethyl)[1,2,4]triazolo[1,5-a]pyrimidin-7(4H)-one] | 5.08
8 | CC(C)c1c(-c2cnn(Cc3ccncc3)c2)[nH]c2ncnn2c1=O [Example 11-15, 6-(1-methylethyl)-5-[1-(pyridin-4-ylmethyl)-1H-pyrazol-4-yl][1,2,4]triazolo[1,5-a]pyrimidin-7(4H)-one] | 7.5
9 | COCCn1cc(-c2[nH]c3ncnn3c(=O)c2C(C)C)cn1 [Example 11-16, 5-[1-(2-methoxyethyl)-1H-pyrazol-4-yl]-6-(1-methylethyl)[1,2,4]triazolo[1,5-a]pyrimidin-7(4H)-one] | 5.73
10 | CC(C)c1c(-c2cnn(-c3ccc(F)cc3)c2)[nH]c2ncnn2c1=O [Example 11-17, 5-[1-(4-fluorophenyl)-1H-pyrazol-4-yl]-6-(1-methylethyl)[1,2,4]triazolo[1,5-a]pyrimidin-7(4H)-one] | 6.47
11 | CC(C)c1c(-c2cnn(C3CC3)c2)[nH]c2ncnn2c1=O [Example 11-18, 5-(1-cyclopropyl-1H-pyrazol-4-yl)-6-(1-methylethyl)[1,2,4]triazolo[1,5-a]pyrimidin-7(4H)-one] | 5.74
12 | CCn1cc(-c2[nH]c3ncnn3c(=O)c2C(C)C)cn1 [Example 11-19, 5-(1-ethyl-1H-pyrazol-4-yl)-6-(1-methylethyl)[1,2,4]triazolo[1,5-a]pyrimidin-7(4H)-one] | 6.27
13 | CC(C)c1c(-c2cnn(C(C)C)c2)[nH]c2ncnn2c1=O [Example 11-20, 6-(1-methylethyl)-5-[1-(1-methylethyl)-1H-pyrazol-4-yl][1,2,4]triazolo[1,5-a]pyrimidin-7(4H)-one] | 5.08
14 | CCCn1cc(-c2[nH]c3ncnn3c(=O)c2C(C)C)cn1 [Example 11-21, 6-(1-methylethyl)-5-(1-propyl-1H-pyrazol-4-yl)[1,2,4]triazolo[1,5-a]pyrimidin-7(4H)-one] | 5.08
15 | C=C(CCC)c1[nH]c2ncnn2c(=O)c1C(C)C [Example 11-22, 6-(1-methylethyl)-5-(1-methylidene-butyl)[1,2,4]triazolo[1,5-a]pyrimidin-7(4H)-one] | 808
16 | COC/C=C/c1[nH]c2ncnn2c(=O)c1C(C)C [Example 11-23, 5-[(1E)-3-methoxyprop-1-en-1-yl]-6-(1-methylethyl)[1,2,4]triazolo[1,5-a]pyrimidin-7(4H)-one] | 27.7
17 | CC(C)c1c(-c2ccncc2)[nH]c2ncnn2c1=O [Example 11-24, 6-(1-methylethyl)-5-pyridin-4-yl[1,2,4]triazolo[1,5-a]pyrimidin-7(4H)-one] | 41.2
18 | CC(C)c1c(-c2cccnc2)[nH]c2ncnn2c1=O [Example 11-25, 6-(1-methylethyl)-5-pyridin-3-yl[1,2,4]triazolo[1,5-a]pyrimidin-7(4H)-one] | 47.1

Row | Compound | IC50 [nM]
19 | CC(C)c1c(-c2cncnc2)[nH]c2ncnn2c1=O [Example 11-26, 6-(1-methylethyl)-5-pyrimidin-5-yl[1,2,4]triazolo[1,5-a]pyrimidin-7(4H)-one] | 103
20 | CC(C)c1c(-c2ccn(C)c2)[nH]c2ncnn2c1=O [Example 11-27, 6-(1-methylethyl)-5-(1-methyl-1H-pyrrol-3-yl)[1,2,4]triazolo[1,5-a]pyrimidin-7(4H)-one] | 17.9
21 | Cc1[nH]ncc1-c1[nH]c2ncnn2c(=O)c1C(C)C [Example 11-28, 6-(1-methylethyl)-5-(5-methyl-1H-pyrazol-4-yl)[1,2,4]triazolo[1,5-a]pyrimidin-7(4H)-one] | 155
22 | CC(C)c1c(C2=CCCCC2)[nH]c2ncnn2c1=O [Example 11-29, 5-cyclohex-1-en-1-yl-6-(1-methylethyl)[1,2,4]triazolo[1,5-a]pyrimidin-7(4H)-one] | 399
23 | CC(C)c1c(C2=COCCC2)[nH]c2ncnn2c1=O [Example 11-30, 5-(3,4-dihydro-2H-pyran-5-yl)-6-(1-methylethyl)[1,2,4]triazolo[1,5-a]pyrimidin-7(4H)-one] | 254
24 | CC(C)c1c(C2=CCCOC2)[nH]c2ncnn2c1=O [Example 11-31, 5-(5,6-dihydro-2H-pyran-3-yl)-6-(1-methylethyl)[1,2,4]triazolo[1,5-a]pyrimidin-7(4H)-one] | 372
25 | CC(C)c1c(-c2ccccc2F)[nH]c2ncnn2c1=O [Example 11-32, 5-(2-fluorophenyl)-6-(1-methylethyl)[1,2,4]triazolo[1,5-a]pyrimidin-7(4H)-one] | 394
26 | CC(C)c1c(-c2cccc(F)c2)[nH]c2ncnn2c1=O [Example 11-33, 5-(3-fluorophenyl)-6-(1-methylethyl)[1,2,4]triazolo[1,5-a]pyrimidin-7(4H)-one] | 136
27 | Cc1noc(C)c1-c1[nH]c2ncnn2c(=O)c1C(C)C [Example 11-34, 5-(3,5-dimethylisoxazol-4-yl)-6-(1-methylethyl)[1,2,4]triazolo[1,5-a]pyrimidin-7(4H)-one] | 11100
28 | CC(C)c1c(C2=CCCN(C)C2)[nH]c2ncnn2c1=O [Example 11-35, 6-(1-methylethyl)-5-(1-methyl-1,2,5,6-tetrahydropyridin-3-yl)[1,2,4]triazolo[1,5-a]pyrimidin-7(4H)-one] | 506
29 | CC(C)c1c(C2=CCC(O)CC2)[nH]c2ncnn2c1=O (stereo not drawn) [Example 11-36, 5-(4-hydroxycyclohex-1-en-1-yl)-6-(1-methylethyl)[1,2,4]triazolo[1,5-a]pyrimidin-7(4H)-one] | 137
30 | CC(C)c1c(-c2cccc(C#N)c2)[nH]c2ncnn2c1=O [Example 11-37, 3-[6-(1-methylethyl)-7-oxo-4,7-dihydro[1,2,4]triazolo[1,5-a]pyrimidin-5-yl]benzonitrile] | 21.6
31 | CC(C)c1c(-c2ccc(C#N)cc2)[nH]c2ncnn2c1=O [Example 11-38, 4-[6-(1-methylethyl)-7-oxo-4,7-dihydro[1,2,4]triazolo[1,5-a]pyrimidin-5-yl]benzonitrile] | 21.6
32 | CC(C)c1c(-c2cnn(Cc3ccccn3)c2)[nH]c2ncnn2c1=O [Example 11-39, 6-(1-methylethyl)-5-[1-(pyridin-2-ylmethyl)-1H-pyrazol-4-yl][1,2,4]triazolo[1,5-a]pyrimidin-7(4H)-one] | 5.83
33 | CC(C)c1c(-c2cnn(Cc3cccnc3)c2)[nH]c2ncnn2c1=O [Example 11-40, 6-(1-methylethyl)-5-[1-(pyridin-3-ylmethyl)-1H-pyrazol-4-yl][1,2,4]triazolo[1,5-a]pyrimidin-7(4H)-one] | 5.77
34 | CC(C)c1c(-c2ccc(N3CCCCC3)cc2)[nH]c2ncnn2c1=O [Example 11-41, 6-(1-methylethyl)-5-(4-piperidin-1-ylphenyl)[1,2,4]triazolo[1,5-a]pyrimidin-7(4H)-one] | 11.8
35 | CC(C)c1c(-c2cccc(N3CCCCC3)c2)[nH]c2ncnn2c1=O [Example 11-42, 6-(1-methylethyl)-5-(3-piperidin-1-ylphenyl)[1,2,4]triazolo[1,5-a]pyrimidin-7(4H)-one] | 74.7
36 | CC(C)c1c(-c2coc(-c3ccc(F)cc3)n2)[nH]c2ncnn2c1=O [Example 11-43, 5-[2-(4-fluorophenyl)-1,3-oxazol-4-yl]-6-(1-methylethyl)[1,2,4]triazolo[1,5-a]pyrimidin-7(4H)-one] | 23.8
